# Measured values from patent US11541107B2, “Peptides and T cells for use in immunotherapeutic treatment of various cancers” (Immatics Biotechnologies GmbH, priority 2015, dated 2023).
# Key:
# [1] = tested on: CD8+ T cells; assay: In vitro T-cell priming assay (aAPCs loaded with peptide/MHC and anti-CD28, pMHC multimer readout; HLA-A*02 and HLA-A*24); type: cell-based, human; settings: in vitro immunogenicity of HLA class I peptides; peptide-specific T cells by pMHC multimer staining
# From the text: In order to obtain information regarding the immunogenicity of the TUMAPs of the present invention, the inventors performed investigations using an in vitro T-cell priming assay based on repeated stimulations of CD8+ T cells with artificial antigen presenting cells (aAPCs) loaded with peptide/MHC complexes and anti-CD28 antibody.
# In order to perform in vitro stimulations by artificial antigen presenting cells loaded with peptide-MHC complex (pMHC) and anti-CD28 antibody, the inventors first isolated CD8+ T cells from fresh HLA-A*02 leukapheresis products via positive selection using CD8 microbeads (Miltenyi Biotec, Bergisch-Gladbach, Germany) of healthy donors obtained from the University clinics Mannheim, Germany, after informed consent.
# PBMCs and isolated CD8+ lymphocytes were incubated in T-cell medium (TCM) until use consisting of RPMI-Glutamax (Invitrogen, Karlsruhe, Germany) supplemented with 10% heat inactivated human AB serum (PAN-Biotech, Aidenbach, Germany), 100 U/ml Penicillin/100 μg/ml Streptomycin (Cambrex, Cologne, Germany), 1 mM sodium pyruvate (CC Pro, Oberdorla, Germany), 20 μg/ml Gentamycin (Cambrex). 2.5 ng/ml IL-7 (PromoCell, Heidelberg, Germany) and 10 U/ml IL-2 (Novartis Pharma, Nürnberg, Germany) were also added to the TCM at this step.
# Generation of pMHC/anti-CD28 coated beads, T-cell stimulations and readout was performed in a highly defined in vitro system using four different pMHC molecules per stimulation condition and 8 different pMHC molecules per readout condition.
# The purified co-stimulatory mouse IgG2a anti human CD28 Ab 9.3 (Jung et al., 1987) was chemically biotinylated using Sulfo-N-hydroxysuccinimidobiotin as recommended by the manufacturer (Perbio, Bonn, Germany). Beads used were 5.6 μm diameter streptavidin coated polystyrene particles (Bangs Laboratories, Illinois, USA).
# pMHC used for positive and negative control stimulations were A*0201/MLA-001 (peptide […] (SEQ ID NO. 418) from modified Melan-A/MART-1) and A*0201/DDX5-001 ([…] from DDX5, SEQ ID NO. 419), respectively.
# 800.000 beads/200 μl were coated in 96-well plates in the presence of 4×12.5 ng different biotin-pMHC, washed and 600 ng biotin anti-CD28 were added subsequently in a volume of 200 μl. Stimulations were initiated in 96-well plates by co-incubating 1×10^6 CD8+ T cells with 2×10^5 washed coated beads in 200 μl TCM supplemented with 5 ng/ml IL-12 (PromoCell) for 3 days at 37° C. Half of the medium was then exchanged by fresh TCM supplemented with 80 U/ml IL-2 and incubating was continued for 4 days at 37° C. This stimulation cycle was performed for a total of three times. For the pMHC multimer readout using 8 different pMHC molecules per condition, a two-dimensional combinatorial coding approach was used as previously described (Andersen et al., 2012) with minor modifications encompassing coupling to 5 different fluorochromes. Finally, multimeric analyses were performed by staining the cells with Live/dead near IR dye (Invitrogen, Karlsruhe, Germany), CD8-FITC antibody clone SK1 (BD, Heidelberg, Germany) and fluorescent pMHC multimers. For analysis, a BD LSRII SORP cytometer equipped with appropriate lasers and filters was used. Peptide specific cells were calculated as percentage of total CD8+ cells. Evaluation of multimeric analysis was done using the FlowJo software (Tree Star, Oregon, USA). In vitro priming of specific multimer+CD8+ lymphocytes was detected by comparing to negative control stimulations.
# Exemplary flow cytometry results after TUMAP-specific multimer staining for 2 peptides of the invention are shown in FIGS. 3A-3B together with corresponding negative controls. Results for 5 peptides from the invention are summarized in Table12A. Exemplary flow cytometry results after TUMAP-specific multimer staining for 7 peptides of the invention are shown in FIGS. 4A-4C and FIGS. 5A-5D together with corresponding negative controls.
# [2] = molecular target: HLA-A*02 (Homo sapiens, UniProt P04439, D140Y/D185E/D98H/E176V/E277Q/G131W/G231S/I119V/I121R/I166T/I218V/L300P/N151K/N90K/P208A/P217A/Q86G/Q94H/R138H/R169H); assay: MHC binding assay, UV-ligand exchange with beta2m ELISA, HLA-A*02; settings: binding to HLA-A*02 ranged by peptide exchange yield (UV-ligand exchange, beta2m ELISA)
# How it was run: (§1)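 Peptide–MHC complexes made by UV-ligand exchange of a UV-cleavable peptide. Exchange yield measured by ELISA: monomers diluted 100-fold on streptavidin-coated plates, 1 h at 37°C, detected with HRP anti-β2m (2 ug/ml) and TMB, absorbance at 450 nm.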
# [3] = tested on: HLA-A*24; assay: MHC binding assay, UV-ligand exchange with beta2m ELISA, HLA-A*24; design: species or system human; settings: binding to HLA-A*24 ranged by peptide exchange yield (UV-ligand exchange, beta2m ELISA)
# How it was run: as §1
Substance,Peptide exchange [2],Peptide exchange [3],Wells positive [%] [1]
17 (ILHEHHIFL; listed as Homo sapiens) [compound 17],+++ (50%-75% = +++),–,+ (<20% = +)
7 (AAAAKVPEV; listed as Homo sapiens) [compound 7],+++ (50%-75% = +++),–,+ (<20% = +)
2 (ALYGKLLKL; listed as Homo sapiens) [compound 2],+++ (50%-75% = +++),–,++++ (>=70% = ++++)
43 (LLWAGPVTA; listed as Homo sapiens) [compound 43],+++ (50%-75% = +++),–,++++ (>=70% = ++++)
9 (FLGDYVENL; listed as Homo sapiens) [compound 9],++ (20%-49% = ++),–,+ (<20% = +)
160 (RYGDGGSSF; listed as Homo sapiens) [compound 160],–,+++ (50%-75% = +++),+ (<20% = +)
105 (IYNETITDLL; listed as Homo sapiens) [compound 105],–,+++ (50%-75% = +++),+ (<20% = +)

# Continued, in another order:
Peptide exchange [2],Peptide exchange [3],Substance,Wells positive [%] [1]
+++ (50%-75% = +++),–,322 (ALVSGGVAQA; listed as Homo sapiens) [compound 322],+ (<20% = +)
–,+++ (50%-75% = +++),174 (VYEKNGYIYF; listed as Homo sapiens) [compound 174],++++ (>=70% = ++++)
–,+++ (50%-75% = +++),177 (VYFKAGLDVF; listed as Homo sapiens) [compound 177],+ (<20% = +)
–,++++ (>=75% = ++++),359 (NYGVLHVTF; listed as Homo sapiens) [compound 359],+ (<20% = +)
–,++++ (>=75% = ++++),163 (RYLTISNLQF; listed as Homo sapiens) [compound 163],+ (<20% = +)
